Assay results as given in patent publication US10774085B2, “Method of treatment using substituted pyrazolo[1,5-A] pyrimidine compounds” (Array BioPharma Inc., priority 2008, dated 2020).
pIC50: −log10 of the molar value.

Molecular target: histidine-tagged recombinant human TrkA, cytoplasmic domain (Homo sapiens (Human), UniProt P04629)
Assay: TrkA ELISA Assay
Type: biochemical
Details: 2.5 nM TrkA, 500 μM ATP; read-out: TrkA Elisa Enzyme IC50
Description: An enzyme-linked immunosorbant assay (ELISA) was used to assess TrkA kinase activity in the presence of inhibitors. Immulon 4HBX 384-well microtiter plates (Thermo part #8755) were coated with a 0.025 mg/mL solution of poly (Glu, Ala, Tyr; 6:3:1; Sigma P3899). Various concentrations of test compound, 2.5 nM TrkA (Invitrogen Corp., histidine-tagged recombinant human TrkA, cytoplasmic domain), and 500 μM ATP were incubated for 25 minutes at ambient temperature in the coated plates while shaking. The assay buffer consisted of 25 mM MOPS pH 7.5, 0.005% (v/v) Triton X-100 and 5 mM MgCl2. The reaction mixture was removed from the plate by washing with PBS containing 0.1% (v/v) Tween 20. The phosphorylated reaction product was detected using 0.2 μg/mL of a phosphotyrosine specific monoclonal antibody (clone PY20) conjugated to horseradish peroxidase in conjunction with the TMB Peroxidase Substrate System (KPL). After the addition of 1M phosphoric acid, the chromogenic substrate color intensity was quantitated via absorbance at 450 nm. IC50 values were calculated using either a 4 or 5-parameter logistic curve fit.

Sequence of histidine-tagged recombinant human TrkA, cytoplasmic domain (P04629 440-796): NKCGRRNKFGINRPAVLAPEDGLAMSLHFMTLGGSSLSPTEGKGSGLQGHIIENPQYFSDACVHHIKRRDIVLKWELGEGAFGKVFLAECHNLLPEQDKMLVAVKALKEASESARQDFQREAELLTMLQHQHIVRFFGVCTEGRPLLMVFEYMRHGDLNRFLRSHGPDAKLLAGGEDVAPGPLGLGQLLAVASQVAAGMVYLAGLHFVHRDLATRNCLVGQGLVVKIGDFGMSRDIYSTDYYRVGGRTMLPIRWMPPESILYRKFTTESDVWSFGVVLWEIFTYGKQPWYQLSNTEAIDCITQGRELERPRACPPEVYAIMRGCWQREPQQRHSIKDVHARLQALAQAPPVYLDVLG

pIC50: 7.99
Compound: COc1ccc(F)cc1[C@H]1CCCN1c1ccn2ncc(NC(=O)N3CCC[C@H](O)C3)c2n1 [Example 91, (S)—N-(5-((R)-2-(5-fluoro-2-methoxyphenyl)pyrrolidin-1-yl)pyrazolo[1,5-a]pyrimidin-3-yl)-3-hydroxypiperidine-1-carboxamide]
